Source: ChEMBL document CHEMBL1201862, “PubChem BioAssay data set” (2004)
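Grown in 96-well plates, cells were treated for 48 hours with each compound at five concentrations. Insufficient inhibition: endpoint recorded as highest concentration tested. GI50 is the concentration that inhibits growth by half.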 Calls of active or inactive are those of the source. Rule as the data show it: active = GI50 up to about 1.1 µM and inactive = higher.

How the values were obtained:
Assay in all cases: NCI tumour cell line growth inhibition, 48 h
[1] = system: RXF 393
[2] = system: 786-0
[3] = system: UACC-62
[4] = system: HOP-62
[5] = system: SK-MEL-2
[6] = system: LOX IMVI
[7] = system: PC-3
[8] = system: ACHN
[9] = system: SK-MEL-5
[10] = system: OVCAR-8
[11] = system: NCI-H226
[12] = system: NCI-H23
[13] = system: MOLT-4
[14] = system: UACC-257
[15] = system: HL-60
[16] = system: DU-145
[17] = system: OVCAR-4
[18] = system: T47D
[19] = system: SK-OV-3
[20] = system: MCF7

SMILES	GI50 [1]	GI50 [2]	GI50 [3]	GI50 [4]	GI50 [5]	GI50 [6]	GI50 [7]	GI50 [8]	GI50 [9]	GI50 [10]	GI50 [11]	GI50 [12]	GI50 [13]	GI50 [14]	GI50 [15]	GI50 [16]	GI50 [17]	GI50 [18]	GI50 [19]	GI50 [20]
O=[As](O)(O)c1ccc(/N=N/c2ccc([As](=O)(O)O)cc2)cc1	> 100 µM (inactive)	> 100 µM (inactive)	> 100 µM (inactive)	> 100 µM (inactive)	> 100 µM (inactive)	> 100 µM (inactive)	> 100 µM (inactive)	> 100 µM (inactive)	> 100 µM (inactive)	> 100 µM (inactive)	> 100 µM (inactive)	> 100 µM (inactive)	> 100 µM (inactive)	> 100 µM (inactive)	> 100 µM (inactive)	> 100 µM (inactive)	> 100 µM (inactive)	> 100 µM (inactive)		
N=C1N(S(=O)(=O)c2ccccc2)[C@@H](Cc2ccccc2)[C@H](c2ccccc2)C1(c1ccccc1)c1ccccc1	63.2 µM (inactive)	> 100 µM (inactive)	> 100 µM (inactive)	> 100 µM (inactive)	> 100 µM (inactive)	> 100 µM (inactive)	9.62 µM (inactive)	> 100 µM (inactive)	23.6 µM (inactive)	41 µM (inactive)		41.4 µM (inactive)	16.8 µM (inactive)	35.6 µM (inactive)	4.12 µM (inactive)	> 100 µM (inactive)	> 100 µM (inactive)		> 100 µM (inactive)	> 100 µM (inactive)
O=C(n1c(=O)n(-c2ccc(Cl)cc2)c(=O)n1C(=O)C(Cl)(Cl)Cl)C(Cl)(Cl)Cl		> 100 µM (inactive)	> 100 µM (inactive)	> 100 µM (inactive)	> 100 µM (inactive)	> 100 µM (inactive)	> 100 µM (inactive)	12.7 µM (inactive)	> 100 µM (inactive)	> 100 µM (inactive)		> 100 µM (inactive)	> 100 µM (inactive)	> 100 µM (inactive)	> 100 µM (inactive)	> 100 µM (inactive)	> 100 µM (inactive)	> 100 µM (inactive)	> 100 µM (inactive)	> 100 µM (inactive)
O=C(Sc1n[nH]c(=O)[nH]c1=O)c1cccc2nc3ccccc3nc12	> 100 µM (inactive)	> 100 µM (inactive)	38.8 µM (inactive)		68.2 µM (inactive)	18.5 µM (inactive)		30.2 µM (inactive)	3.41 µM (inactive)	> 100 µM (inactive)	34.4 µM (inactive)	3.78 µM (inactive)	> 100 µM (inactive)	13.2 µM (inactive)	> 100 µM (inactive)	10.6 µM (inactive)	76.9 µM (inactive)	> 100 µM (inactive)	> 100 µM (inactive)	7.67 µM (inactive)
C=CCOC1OC(CO[Si](C)(C)C(C)(C)C)C(OCc2ccccc2)C(OCc2ccccc2)C1OCc1ccccc1 (configuration not stated)		10.5 µM (inactive)	27.2 µM (inactive)	21.7 µM (inactive)	47.8 µM (inactive)	25.9 µM (inactive)	58.9 µM (inactive)	40.4 µM (inactive)	29.5 µM (inactive)	37.5 µM (inactive)	> 100 µM (inactive)	> 100 µM (inactive)	> 100 µM (inactive)	46.8 µM (inactive)	> 100 µM (inactive)	39.7 µM (inactive)	39 µM (inactive)	35.6 µM (inactive)	> 100 µM (inactive)	54.3 µM (inactive)
CCOC(=O)CCC(NC(=O)c1ccc(N2CCN(c3c(C)nc(N)nc3N)CC2)cc1)C(=O)OCC (configuration not stated)		0.0929 µM (active)	0.165 µM (active)		> 100 µM (inactive)	0.513 µM (active)	0.0398 µM (active)	0.122 µM (active)	0.0923 µM (active)	0.452 µM (active)	0.902 µM (active)	0.169 µM (active)	0.186 µM (active)	15.6 µM (inactive)		> 100 µM (inactive)	> 100 µM (inactive)	> 88.9 µM (inactive)	> 100 µM (inactive)	0.685 µM (active)
CCc1n[nH]c(=O)n1/N=C/c1ccccc1Cl	0.474 µM (active)	> 100 µM (inactive)	53.6 µM (inactive)	76.2 µM (inactive)	> 100 µM (inactive)	> 100 µM (inactive)		> 100 µM (inactive)	> 100 µM (inactive)	> 100 µM (inactive)	88.5 µM (inactive)	> 100 µM (inactive)	> 100 µM (inactive)	> 100 µM (inactive)	> 100 µM (inactive)	> 100 µM (inactive)	> 100 µM (inactive)	> 100 µM (inactive)	> 100 µM (inactive)	> 100 µM (inactive)
